From US20220118117A1, “MODULATORS OF METABOTROPIC GLUTAMATE RECEPTOR 4” (The General Hospital Corporation, priority 2019, published 2022)

Experiments:
[1] = plasma protein binding, ultrafiltration assay using [18F]15; type: in vitro ADME; conditions: human plasma
Description: Plasma Protein Binding Assay. An aliquot of radiolabeled compound [^18F]15 in saline (10 μL, 74 kBq) was added to a sample of human plasma (0.5 mL). The mixture was gently mixed by repeated inversion and incubated for 10 min at room temperature. Following incubation, a small sample (10 μL) was removed to determine the total radioactivity in the plasma sample (AT; AT=Abound+Aunbound). The upper part of the Centrifree tube was discarded, and an aliquot (10 μL) from the bottom part of the tube was removed to determine the amount of unbound radioactivity (Aunbound) that passed through the membrane (molecular weight cutoff 30 kD). The radioactivity of each sample was measured using PerkinElmer Wizard2 2480 gamma-counter. Plasma protein binding was derived by the following equation: % unbound=Aunbound×100/AT.
As the PET tracer is delivered into the bloodstream, it can bind to albumin, α1-acid glycoprotein and lipoproteins. Plasma protein binding reduces the free drug in the bloodstream and inhibits BBB penetration to reach the brain target. (Ref 44) The PPB value was obtained with an ultrafiltration assay by using [^18F]15. […] These pharmacological properties along with other molecular properties such as MW, tPSA and HBO are in the range normally considered favorable for a PET ligand.

solution stability = type: physicochemical
Description: Three pH values, 5, 7.4 and 9.4 were selected to check the solution stability. Aqueous solutions with different pH values were established using the following buffers: sodium acetate-KCl—HCl buffer (20 mM, pH 5.0), phosphate buffer (20 mM, pH 7.4), and boric acid-KCl—NaOH buffer (20 mM, pH 9.4). 891 μL of each pH buffer was placed in different tubes. 9 μL (1 mM) of the sample stock (4, 13, 15 and Diltiazem) was transferred to a particular buffer tube and mixed just before the time 0 min. The mixture was vortexed and incubated at 37° C. After the incubation at the different time points (0, 15, 30, 60, and 120 min), aliquots of 50 μL samples were quenched with 100 μL of ice-cold acetonitrile with 25 μM internal reference, respectively, and analyzed by HPLC. The percentage of the remaining intact compound was calculated by (peak area at the specific time point)/(peak area at 0 min)×100. Every sample was assayed three times.

- PPB (plasma protein binding) [1]: 93.1%
- The solution stability, The intact ± SEM at 120 min (%) (solution stability; pH = 5.0, 37° C.): 87.1 ± 0.9%
- The solution stability, The intact ± SEM at 120 min (%) (solution stability; pH = 7.4, 37° C.): 88.3 ± 1.9%
- The solution stability, The intact ± SEM at 120 min (%) (solution stability; pH = 9.4, 37° C.): 84.3 ± 1.8%
SMILES: [2H]C([2H])(F)Sc1cc(NC(=O)c2ccccn2)ccc1Cl [Compound 15, N-(4-Chloro-3-((fluoromethyl-d2)thio)phenyl)picolinamide]
